Molecular target: T1, human serum albumin (HSA) (Homo sapiens, UniProt P02768)
T1 construct: purchased Sigma–Aldrich Co
Assay: Albumin binding by tryptophan fluorescence quenching (HSA)
Conditions: for ΔΙ/Ιο, quenching of the HSA fluorescence: HSA 3 μM, λex 295 nm; for % relative HSA fluorescence emission intensity I/Io remaining (% of initial): final value, pH 7.0; for HSA-binding constant K: Scatchard equation; for HSA-quenching constant kq: from Stern–Volmer plots, τo 10^-8 s
Source text: Serum albumins are among the important proteins of the circulatory system. Their main role is to carry drugs and other bioactive small molecules through the bloodstream. BSA and HSA are structurally homologous albumins, having two and one tryptophan residues, respectively. The tryptophan residues of both albumins are responsible for the intense fluorescence emission band with λem,max = 342 nm for BSA and 350 nm for HSA, respectively, when their solutions are excited at 295 nm. […] The inner-filter effect was calculated with Equation (S4) and it was found too low to affect the measurements.
When the compounds were added to a solution of the albumins (3 μM), a significant quenching of the BSA (λem = 342 nm) and HSA (λem = 350 nm) fluorescence emission bands was observed (Figure 7) which was more pronounced in the case of BSA (Table 7 and Figure 8). […] The observed quenching may be ascribed to changes in the tryptophan environment of SA resulting from possible denaturation of their secondary structure, induced by the binding of the complexes to the albumins. […]
Io =1+ k τ [Q] =1+ K [Q] […]
S3Albumin -binding studies
In order to investigate if the compounds can bind to carrier proteins like serum albumins, we carried out albumin binding study by tryptophan fluorescence quenching experiments using bo vine serum albumin (BSA, 3 μM) in buffer (containing 15 mM trisodium citrate and 150 mM NaCl at pH 7.0). The quenching of the emission intensity of tryptophan residues of BSA at 343 nm was monitored using the co mpounds as que ncher s with increasing concentration [S4]. The fluo rescence emission spectra of the compounds were also recorded with λex = 295 nm. No fluorescence emission band was recorded and thus it was not related to the compounds . The influence of the inner-filter effect [S6] on the measurements wa s evaluated by equation S4.
Where Icorr = corrected intensity, Imeas = the measured intensity, c = the concentration of the quencher, d = the cuvette (1 cm), ε (λexc ) and ε(λe m) = the ε of the quencher at the excitation and the emission wavelength, respectively, as calculated from the UV-vis spectra of the […]
The Stern-Volmer and Scatchard graphs are used to study the interaction of the compounds with serum albumins. According to Stern-Volmer quenching equation (eq.
S2), where Io = the initial tryptophan fluorescence intensity of SA, I = the tryptophan fluorescence intensity of SA after the addition of the quencher, kq = the quenching […]
constant, KSV = the Stern-Volmer constant, τo = the average lifetime of SA without the quencher, and, tak ing as fluorescence lifet ime (τo) of tryptophan in SA at around 10-8 s [S 4] , KSV (in M -1) can be obtained by the slope of the diagram Io/I versus [compound] (Stern-Volmer plots), and subsequently the quenching (kq, in M -1s-1) may be calculated from eq.
From the Scatchard equation (eq. S5): […]
where n is the number of binding sites per albumin and K is the SA-binding constant (K, in M -1) is calculated from the slope in plots (ΔI/Io)/[complex] versus ΔI/Io and n is given by the ratio of y intercept to the slope [S7].
S1 Kontogiorgis, C.; Hadjipavlou–Lit ina, D. Biological Evaluat ion of Several Coumarin Derivatives Designed as Possible Anti–inflammatory/Antioxidant Agents. J. Enz. Inhib.
S2 Ruch, R.J.; Cheng, C.; Klaunig, J.E. Prevention of cytotoxicity and inhibition of intercellular communication by antioxidant catechins isolated from Chinese green tea.
S3 Wolfe, A.; Shimer, G.; Meehan, T. Polycyclic Aromatic Hydrocarbons Physically Intercalate into Duplex Regions of Denatured DNA. Biochemistry 1987, 26, 6392–6396.
S4 Lakowicz, J.R. Principles of Fluorescence Spectroscopy , 3rd ed.; Plenum Press: New […]
S5 Heller, D.P.; Greenstock, C.L. Fluorescence lifetime analysis of DNA intercalated ethid ium bromide and quench ing by free dye. Biophys. Chem.1994,50, 305–312.
S6 Stella, L.; Capodilupo, A.L.; Bietti, M. A reassessment of the association between […]
azulene and [60]fullerene. […]

T1 sequence (P02768 25-609): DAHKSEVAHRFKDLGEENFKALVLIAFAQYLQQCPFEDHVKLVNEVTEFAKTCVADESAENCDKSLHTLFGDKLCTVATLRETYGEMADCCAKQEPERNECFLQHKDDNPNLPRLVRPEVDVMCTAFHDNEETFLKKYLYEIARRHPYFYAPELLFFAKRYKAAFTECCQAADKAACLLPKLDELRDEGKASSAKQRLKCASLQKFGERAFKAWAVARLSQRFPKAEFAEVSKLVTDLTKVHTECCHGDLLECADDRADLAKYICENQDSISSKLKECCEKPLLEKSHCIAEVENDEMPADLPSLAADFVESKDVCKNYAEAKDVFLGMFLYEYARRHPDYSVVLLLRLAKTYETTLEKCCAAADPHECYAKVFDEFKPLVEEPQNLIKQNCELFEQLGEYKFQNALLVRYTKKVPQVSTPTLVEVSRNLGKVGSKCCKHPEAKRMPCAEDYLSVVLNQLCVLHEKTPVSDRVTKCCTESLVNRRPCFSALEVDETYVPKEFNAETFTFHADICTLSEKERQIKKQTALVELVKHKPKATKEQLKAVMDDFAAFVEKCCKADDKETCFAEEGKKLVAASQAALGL

| SMILES | ΔΙ/Ιο, quenching of the HSA fluorescence | % relative HSA fluorescence emission intensity I/Io remaining (% of initial) | HSA-binding constant K | HSA-quenching constant kq |
| --- | --- | --- | --- | --- |
| O=Cc1cc(F)ccc1[O-].O=Cc1cc(F)ccc1[O-].[Cu+2] [Complex 1, [Cu(5–F–salo)2]] | 61.3% | 38.7% | 1.58 (±0.09) × 10^5 M^−1 | 4.37 (±0.18) × 10^12 M^−1 s^−1 |
| O=Cc1cc(F)ccc1[O-].[Cl-].[Cu+2].c1ccc(Nc2ccccn2)nc1 [Complex 2, [Cu(5–F–salo)(bipyam)Cl]] | 62.7% | 37.3% | 5.09 (±0.29) × 10^5 M^−1 | 6.27 (±0.21) × 10^12 M^−1 s^−1 |
| CO.Cc1ccc2ccc3ccc(C)nc3c2n1.O=Cc1cc(F)ccc1[O-].[Cl-].[Cu+2] [Complex 3, [Cu(5–F–salo)(neoc)Cl].CH3OH] | 68.5% | 31.5% | 7.16 (±0.40) × 10^5 M^−1 | 1.25 (±0.05) × 10^13 M^−1 s^−1 |
| O=Cc1cc(F)ccc1[O-].O=[N+]([O-])[O-].[Cu+2].c1cnc2c(c1)ccc1cccnc12 [Complex 4, [Cu(5–F–salo)(phen)(NO3)]] | 74.6% | 25.5% | 1.70 (±0.09) × 10^6 M^−1 | 8.63 (±0.33) × 10^12 M^−1 s^−1 |
| O=Cc1cc(F)ccc1[O-].O=[N+]([O-])[O-].[Cu+2].c1ccc(-c2ccccn2)nc1 [Complex 5, [Cu(5–F–salo)(bipy)(NO3)]] | 63.0% |  | 1.31 (±0.05) × 10^6 M^−1 | 3.01 (±0.10) × 10^12 M^−1 s^−1 |

Source: publication PMC9782626, “Copper(II) Complexes of 5–Fluoro–Salicylaldehyde: Synthesis, Characterization, Antioxidant Properties, Interaction with DNA and Serum Albumins” (Molecules, 2022)
